According to patent publication US8518707B2, “Method of monitoring adsorbent bed breakthrough in a process for producing alkyl esters from vegetable or animal oil and from an aliphatic monoalcohol” (IFP Energies Novelles, priority 2008, dated 2013):

Columns and labels:
[1] = cited from earlier work
[2] = Soluble glycerol in the ester stream after methanol evaporation (Esterfip-H process); format: physicochemical; conditions: methyl ester stream after alcohol evaporation, ambient temperature
Source text: In the Esterfip-H™ process developed by IFP and using a heterogeneous catalyst, separation between the glycerol and the ester produced occurs in several stages. In fact, methanol acting as a co-solubilizing agent for the methyl esters and the glycerol, the alcohol evaporation stage carried out at the reaction section outlet makes part of the glycerol present in the stream, in a proportion ranging between 0.1 and 5% by mass, insoluble. The soluble part represents, at ambient temperature, 500 to 700 ppm mass, the allowable maximum content set by the European standard being 200 ppm mass of free glycerol. Both the insoluble glycerol and part of the soluble glycerol therefore have to be separated. Separation is first performed through gravity decantation in a decanter drum. The ester stream flowing from the decanter is then sent to a coalescer. The glycerin phase stream is withdrawn at the bottom point of the coalescer. Methods allowing these two separation stages to be improved are described in the patent applications filed by the assignee under No. FR-07/04,711 and FR-07/04,715.

[3] = Solubility limit of glycerol in vegetable rape oil methyl ester (equilibrium with excess glycerol, GC per EN 14,214); format: physicochemical; conditions: solubility limit in vegetable rape oil methyl ester phase
Source text: It has therefore been necessary to determine it. Experimental measurements were therefore carried out on the vegetable rape oil methyl ester/glycerol system. The solubility measurements consisted in bringing together ester and glycerol in excess so as to obtain two distinct phases and to be sure the ester phase is saturated with glycerol, in a thermostat-controlled oven, at the selected temperature, long enough for equilibrium to be reached. A sample is then taken from the ester phase and analysed by gas chromatography according to the method of determining glycerol in ester described in the EN 14,214 standard.

For `OCC(O)CO` [glycerol], the solubility in alcohols ([1]; alcohols) is listed as “infinitely soluble”, the solubility in benzene ([1]; benzene) is listed as “totally insoluble” and the solubility in ethers ([1]; ethers) is listed as “little soluble”. The solubility in water ([1]; water) was “infinitely soluble”, the “soluble part of glycerol in ester stream” value [2] was 500 to 700 ppm mass and the “Climit(glycerol)” value ([3]; T 20 °C) was 320 ppm. For the same compound, the “Climit(glycerol)” value ([3]; T 43 °C) was 484 ppm, the “Climit(glycerol)” value ([3]; T 61 °C) was 813 ppm and the “Climit(glycerol)” value ([3]; T 80 °C) was 1233 ppm.
